# Source: US20220125746A1, “METHOD OF PREVENTING OR TREATING TREATMENT-INDUCED GASTROINTESTINAL INJURY” (priority 2019, published 2022)
# Counter-ions that a name gives are not always drawn.
# Assays:
# [1] = system: Lewis lung carcinoma (LLC) tumors; test: LLC tumor-bearing mice treated with CPT-11 six times over 2 weeks; type: in vivo, mouse
# Description: For tumor experiments, 4 million LLC cells [American Type Culture Collection (ATCC)] were injected into the flanks of WT and Puma KO mice and allowed to grow for 11 days. Mice were then treated with CPT-11 (200 mg/kg) three times per week for 2 weeks. PUMAi (10 mg/kg) or vehicle control was administered by intraperitoneal injection 2 hours before and 20 hours after each dose of CPT-11. Mice were sacrificed 4 hours after the final CPT-11 treatment.
# For tumor experiments, mice were treated with CPT-11 three times per week for two weeks. Mice receiving PUMAi were treated 2 hours before each dose of CPT-11 and 20 hours after. Mice were sacrificed four hours after the final CPT-11 treatment (FIG. 13A). Tumor volumes were measured with calipers and calculated as volume=(length x width2)/2. Mice were 7-9 weeks old, and roughly equal numbers of male and female animals were used. To account for variations in starting body weights, the values in FIGS. 3 and 4 are expressed as a percentage of the respective mouse weights at the time of the first CPT-11 treatment.
# (§1) Immediately after sacrifice, about 10-cm portion of the jejunum was removed and carefully rinsed with ice-cold saline. The tissue was opened longitudinally and tacked to a foam board for fixation overnight in 10% formalin. Tissues were then rolled up into “swiss rolls” and embedded in paraffin. For tumor analysis, flank tumors were removed, measured, and cut into pieces for either formalin fixation or flash freezing in a dry ice/ethanol bath. Tissue sections (5 um) were deparaffinized and rehydrated through graded ethanols. Histological analysis was performed by hematoxylin and eosin (H&E) staining.
# Average villus height was determined by measuring 40 to 50 villi from different locations of the small intestine, from at least three different animals per group, and reported as means A} SEM. Measurements were made from the top of the crypt to the tip of the villus using 100 Å˜H&E images and SPOT 5.1 Advanced software (Diagnostic Instruments Inc.).
# Neutrophil IF. Sections were prepared as described above. […] Sections were then incubated with AlexaFluor-594 goat antirat secondary antibodies (1:200; A11007; Invitrogen) for 1 hour at room temperature and counterstained with VectaShield plus DAPI.
# WT mice = test: Survival after total body irradiation; type: in vivo, mouse; settings: 9.5 and 15 gray TBI; PUMAi 10 mg/kg 30 min before and after, then daily for 4 days
# Description: (FIG. 12A) and (FIG. 12B) Survival of WT mice treated with 3 daily doses of 180 mg/kg/day (A) and 250 mg/kg/day (B) CPT-11, respectively, on days 0, 1, and 2. PUMAi (10 mg/kg) was given 2 hours before each dose of CPT-11 and 20 hours after the final dose. (FIG. 12C) and (FIG. 12D) Survival of WT mice after total body irradiation (TBI) at 9.5 Gy (FIG. 12C) and 15 Gy (FIG. 12D). PUMAi (10 mg/kg) was given 30 min before and 30 min after TBI, and then daily for 4 days. Survivors at 9.5 Gy TBI in C were sacrificed on day 40 with no obvious health problems. P values were calculated by log-rank test.
# mouse colonic organoids = test: Mouse colonic organoids treated with CPT; type: cell-based; settings: PUMAi 50 uM
# Description: Fresh mucosal scrapings from 10 cm of jejunum were washed in cold PBS, resuspended in 700 ul of RNA lysis buffer, and homogenized in a Dounce homogenizer. RNA was isolated using the Quick-RNA MiniPrep kit (Zymo Research) according to the manufacturer's instructions. Organoids were freed from Matrigel using Cell Recovery Solution (Corning), as described in, before RNA isolation. Complementary DNA was generated from 2 ug of total RNA from mice or ˜100 ng of total RNA from colonic organoids and was pooled from three mice or three wells of organoid culture per treatment group using SuperScript III reverse transcriptase (Invitrogen) and random primers. Gene expression was normalized to Gapdh. Representative results are shown, and similar results were obtained in at least three independent experiments. Details on mouse and human primers are found in Tables 1 and 2.
# Mouse crypt isolation, organoid development, and passage were done as previously described with minor modifications. In brief, the complete culture medium for mouse intestinal organoids was slightly modified as follows: advanced Dulbecco's modified Eagle medium (DMEM)/F12 (12634-010, Invitrogen) was supplemented with 100 units/ml penicillin/0.1 mg/ml streptomycin (Invitrogen), 2 mM GlutaMAX (ThermoFisher), 20% (vol/vol) FBS (S11150, ATLANTA Biologicals), and WRN-conditioned medium (50%, vol/vol). Freshly isolated crypts were cultured with the same medium plus 10 μM Y-27632 (Y0503 Sigma) and 100 μg/ml Primocin (ant-pm-1, InvivoGen). For CPT and PUMAi treatment, intestinal organoids were passaged and re-plated in 25 μL of Matrigel (356231, Corning) in 24-well plates 24 hours before treatment with CPT (0.5 μM, C9911, Sigma-Aldrich) and PUMAi (50 μM) for 24 hours. The CPT-containing medium was replaced with complete medium containing PUMAi (50 μM). Three groups (treatment control, CPT only, and CPT plus PUMAi) were set up. Organoids 100 μm or greater in diameter were enumerated on day 6 after CPT treatment. Similar results were obtained from at least three independent experiments with triplicate wells in each experiment.
# C57BL/6J mice = test: Survival and GI injury after three daily doses of CPT-11; type: in vivo, mouse
# Excerpt: as §1
# ; CPT-11). […] . […] BH3-only proteins BIM and NOXA were not induced by CPT-11 or affected by Puma KO (FIG. 8F). […] . […] . Histological analysis confirmed lethal GI injury in WT and p53 KO mice on day 5, showing severe loss of crypts and shortening of villi, which was abrogated in Puma KO mice (FIG. 1F).
structure (smiles),measurement,setting,value
"OCCN1CCN(CC(O)COc2ccc3ccccc3c2)CC1 (stereo not shown) [PUMAi, 1-[4-(2-hydroxyethyl)-1-piperazinyl]-3-(2-naphthyloxy)-2-propanol dihydrochloride]","CPT-11-induced weight loss, intestinal damage and lethality",[1]; PUMAi 10 mg/kg 2 h before and 20 h after each CPT-11 dose,highly resistant
same,tumor response to CPT-11,"[1]; PUMAi 10 mg/kg 2 h before and 20 h after each CPT-11 dose, vs vehicle group",comparable tumor response
same,% mice compieting treatment,"[1]; WT mice, LLC tumor experiments",100% (5/5)
same,grooming and physical activity,[1]; daily inspections throughout the study,improved grooming and physical activity
same,survival after total body irradiation,WT mice,increased the survival
same,"CPT-induced activation of WNT and NOTCH targets (Lgr5, CD44, Olfm4)",mouse colonic organoids; 24 h after CPT,suppressed CPT-induced activation of WNT and NOTCH targets
same,CPT-induced growth suppression and caspase-3 activation,mouse colonic organoids; CPT 500 nM 24 h,strongly blocked
same,survival at the LD90 of CPT-11,"C57BL/6J mice; CPT-11 215 mg/kg per day x3, PUMAi 10 mg/kg 2 h before each dose, WT mice",70%
same,CPT-11-induced lethality,"C57BL/6J mice; CPT-11 180, 215, 250 mg/kg/day x3, PUMAi 10 mg/kg",decreased CPT-11-induced lethality at three different doses
same,GI injury by histological analysis,"C57BL/6J mice; day 5, CPT-11 215 mg/kg per day x3, compared to WT mice",reduced GI injury
